Results from patent US7928095B2, “Treatment of resistant or refractory cancers with multi-arm polymeric conjugates of 7-ethyl-10-hydroxycamptothecin” (Enzon Pharmaceuticals, Inc., priority 2007, dated 2011).

How the values were obtained:
[1] = system: refractory human HT-29 colorectal tumor; assay: Therapeutic efficacy in CPT-11 refractory human HT-29 colorectal tumor xenografted nude mice; type: in vivo
Procedure: Therapeutic efficacy of four-arm PET-Gly-(7-ethyl-10-hydroxycamptothecin) against a refractory human HT-29 colorectal tumor grown in nude mice was determined. […] When tumors reached an average volume of 100 mm^3, mice were treated with CPT-11 (40 mg/kg/dose; q2d×4). Mice were monitored for tumor growth. […] These mice were selected, randomized and divided into two groups. […] The drugs were administered intravenously via the tail vein.
The data in FIG. 1 represent mean±standard deviation (n=7).

[2] = system: Human HT-29 colorectal tumors; assay: Therapeutic efficacy in HT-29 colorectal tumor xenografted mice, second round treatment after CPT-11; type: in vivo, nude mice
Procedure: When tumors reached an average volume of 100 mm^3, mice were treated with CPT-11 (40 mg/kg/dose; q2d×4). Mice were monitored for tumor growth. […] One group was further treated with MTD of CPT-11 (40 mg/kg/dose; q2d×5) and the other group was treated with MTD of four-arm ^40KPEG-Gly-(7-ethyl-10-hydroxycamptothecin) (10 mg/kg/dose q2d×5) starting day 16. The drugs were administered intravenously via the tail vein.
The data in FIG. 2 represent mean±standard deviation (n=10).

[3] = system: CPT-refractory cell line (CEM/C2); settings: CEM/C2 cells, 2 days at 37° C., MTS; FIG. 3
Procedure: CPT-refractory cell line (CEM/C2) and the corresponding non-refractory parent cell line (CEM) were treated with PEG-Gly-(7-ethyl-10-hydroxycamptothecin), 7-ethyl-10-hydroxycamptothecin, and CPT-11. The CEM/C2 and CEM were obtained from NCI. The CEM cell lines are acute lymphoblastic leukemia cell lines. The in vitro cytotoxicity of each drug was determined using a MTS assay. […] At the end of the incubation, MTS dye was added and incubated for 2 to 3 hours at 37° C. and formation of a colored product (formazan) was measured at 490 nm. The % viability at each drug concentration was calculated as [OD test samples−background]/[OD controls (no treatment)−background]. Sigmoidal dose response curves were generated by plotting Log (Drug) as a function of % viability (survival) and IC50 values were calculated using the GraphPad Prism software.

Row | Compound | animals sacrificed due to excessive tumor burden (>1,650 mm^3) ([1]; by day 42) [%] | animals sacrificed due to excessive tumor burden (>1,650 mm^3) ([1]; by day 54) [%] | animals sacrificed due to excessive tumor burden ([2]; as of day 61) [%] | mice with tumors <1,650 mm^3 ([1]; by day 72) [%] | tumor volume decreased compared to day 15 ([1]; day 42, CPT-11 refractory mice, 10 mg/kg/dose q2d×5 i.v. starting day 16) [%] | animals sacrificed ([1]; on day 63, n=7) | tumor volume increased compared to day 1 ([2]; day 54, CPT-11 sensitive mice, second round treatment q2d×5 i.v. starting day 16) [%] | deaths recorded ([2]; on day 61) | potency relative to CPT-11 (cytotoxicity IC50) [3]
1 | CCc1c2c(nc3ccc(OC(=O)N4CCC(N5CCCCC5)CC4)cc13)-c1cc3c(c(=O)n1C2)COC(=O)[C@]3(O)CC [CPT-11, Irinotecan, reference compound] | 29 | 100 | 60 |  |  |  |  |  | 
2 | four-arm ^40KPEG-Gly-(7-ethyl-10-hydroxycamptothecin) [compound 9] |  |  |  | 58 | 25 | 1 of 7 | 193 | No deaths | about 10 fold
